Test results as given in patent US9951064B2, “Azaindazole compounds as inhibitors of T790M containing EGFR mutants” (Genentech, Inc., priority 2013, dated 2018).

Legend:
[1] = target: T1, EGFR T790M L858R (Homo sapiens, UniProt P00533, L858R/T790M); experiment: EGFR T790M L858R biochemical assay (Caliper mobility shift); conditions: 5 μM ATP; apparent Ki (Morrison fit) converted by Cheng-Prusoff, Km of ATP 1.3 μM
T1 construct: purchased Life Technologies PV4879
How it was run: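 Reactions run 30 minutes at room temperature (22 °C), stopped with 80 mM EDTA. Phosphorylated product and substrate separated electrophoretically and quantified by Caliper mobility shift.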

[2] = target: T2, EGFR del746-750 T790M (Homo sapiens, UniProt P00533, DEL746-750/T790M); experiment: EGFR del746-750 T790M biochemical assay (Caliper mobility shift); conditions: 5 μM ATP; apparent Ki (Morrison fit) converted by Cheng-Prusoff, Km of ATP 2.1 μM; read-out: EGFR(T790M/d746-750) Ki
T2 construct: purchased Carna Biosciences 08-528
How it was run: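 Kinase reactions ran 30 min at room temperature (22 °C), then were stopped with 80 mM EDTA. Phosphorylated product and substrate were separated electrophoretically and quantified by Caliper mobility shift.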

[3] = target: T3, phosphor-EGFR in H1975(L585R/T790M) mutant EGFR expressing cells (Homo sapiens, UniProt P00533, L858R/T790M); experiment: H1975 pEGFR MSD cellular assay; type: cell-based; conditions: NCI-H1975 cells, serum starved, 1 hour compound incubation, pEGFR Tyr1068 MSD; read-out: HI975 pEGFR EC50
T3 construct: host or cells: NCI-H1975
How it was run: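 NCI-H1975 cells, 30,000/well, serum-starved overnight, then treated 1 hour at 37° C with serially diluted compounds in serum-free medium (0.5% DMSO). Lysates captured on anti-phospho-EGFR plates overnight at 4° C, detected with SULFO-TAG anti-total EGFR by electrochemiluminescence. Inhibition vs untreated controls; EC50 from 4-parameter logistic fit.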

[4] = test system: H1975 (EGFR T790M/L858R) cell proliferation; experiment: H1975 proliferation assay (Cell Titer-Glo); type: cell-based; conditions: Homo sapiens, NCI-H1975, 72 h, NCI-H1975 cells, 72 hour incubation, read-out: H1975 antiproliferative EC50
Experimental: H1975 Proliferation Assays
All cell culture reagents were purchased from Invitrogen/Gibco. Cells are cultured at 37° C. at 5% CO2 and split as recommended by ATCC.

T2 sequence (P00533 with tags, fused parts or gaps DEL746-750/T790M limits assumed): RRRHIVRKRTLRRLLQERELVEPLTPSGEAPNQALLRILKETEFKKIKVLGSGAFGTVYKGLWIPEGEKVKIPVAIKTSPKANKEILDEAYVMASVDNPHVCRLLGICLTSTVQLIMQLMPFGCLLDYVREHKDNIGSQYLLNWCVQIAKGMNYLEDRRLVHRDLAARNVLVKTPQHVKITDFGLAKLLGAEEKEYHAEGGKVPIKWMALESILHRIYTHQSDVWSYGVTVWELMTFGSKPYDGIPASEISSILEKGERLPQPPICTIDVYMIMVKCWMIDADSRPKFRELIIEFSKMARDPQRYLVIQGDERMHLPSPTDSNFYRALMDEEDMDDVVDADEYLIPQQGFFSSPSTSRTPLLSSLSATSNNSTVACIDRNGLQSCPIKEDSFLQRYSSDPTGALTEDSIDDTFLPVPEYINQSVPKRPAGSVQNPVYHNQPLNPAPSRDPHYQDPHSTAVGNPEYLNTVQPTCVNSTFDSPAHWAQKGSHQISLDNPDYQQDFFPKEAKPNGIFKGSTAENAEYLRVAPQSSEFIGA
T1 sequence (P00533 25-1210 T790M/L858R): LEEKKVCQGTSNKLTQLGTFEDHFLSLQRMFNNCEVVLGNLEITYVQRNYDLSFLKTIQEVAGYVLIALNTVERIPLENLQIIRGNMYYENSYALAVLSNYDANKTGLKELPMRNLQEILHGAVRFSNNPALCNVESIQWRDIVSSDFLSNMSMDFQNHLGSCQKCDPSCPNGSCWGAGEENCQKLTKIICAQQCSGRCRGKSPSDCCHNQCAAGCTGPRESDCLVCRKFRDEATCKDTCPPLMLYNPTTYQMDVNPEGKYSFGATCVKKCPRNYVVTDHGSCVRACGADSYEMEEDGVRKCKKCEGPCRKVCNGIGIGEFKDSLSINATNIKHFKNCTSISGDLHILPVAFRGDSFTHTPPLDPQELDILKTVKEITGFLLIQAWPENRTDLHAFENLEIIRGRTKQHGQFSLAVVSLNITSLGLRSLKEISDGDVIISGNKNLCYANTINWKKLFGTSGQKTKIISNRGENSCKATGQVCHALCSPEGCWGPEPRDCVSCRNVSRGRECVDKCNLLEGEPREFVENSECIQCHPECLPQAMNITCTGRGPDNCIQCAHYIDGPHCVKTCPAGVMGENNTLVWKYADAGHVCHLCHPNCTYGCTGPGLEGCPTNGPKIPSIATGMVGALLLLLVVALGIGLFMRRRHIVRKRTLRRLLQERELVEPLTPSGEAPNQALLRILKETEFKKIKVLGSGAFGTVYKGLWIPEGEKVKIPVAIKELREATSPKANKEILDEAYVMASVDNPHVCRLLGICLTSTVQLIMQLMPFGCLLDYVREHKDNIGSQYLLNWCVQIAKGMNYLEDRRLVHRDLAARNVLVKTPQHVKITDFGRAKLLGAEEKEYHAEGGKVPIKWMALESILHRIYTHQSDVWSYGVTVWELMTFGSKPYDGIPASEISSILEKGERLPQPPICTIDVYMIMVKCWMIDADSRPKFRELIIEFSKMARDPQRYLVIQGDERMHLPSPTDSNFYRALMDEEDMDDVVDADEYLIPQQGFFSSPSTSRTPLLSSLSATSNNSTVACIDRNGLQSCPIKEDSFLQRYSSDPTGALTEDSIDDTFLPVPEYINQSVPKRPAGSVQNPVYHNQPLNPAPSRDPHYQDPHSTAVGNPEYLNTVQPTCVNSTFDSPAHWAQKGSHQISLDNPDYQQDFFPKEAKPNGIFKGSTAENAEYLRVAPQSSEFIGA
T3 sequence (P00533 25-1210 T790M/L858R): as above

Row | Ki [1] [nM] | Ki [2] [nM] | EC50 [3] [nM] | EC50 [4] [nM] | Compound
1 | 2 | 4.8 | 1410 | > 10000 | CC(C)n1nc(N2CC(O)CC2=O)c2cnc(Nc3ccnc(N4CC[C@H](O)[C@H](F)C4)n3)cc21 (mixture of isomers) [Example 173, (±)-1-(6-(2-(cis-3-Fluoro-4-hydroxypiperidin-1-yl)pyrimidin-4-ylamino)-1-isopropyl-1H-pyrazolo[4,3-c]pyridin-3-yl)-4-hydroxypyrrolidin-2-one]
2 | 0.7 | 0.8 | 19.2 | 236 | CCS(=O)(=O)n1cc(-c2nccc(Nc3cc4c(cn3)c(N3CC(C(=O)N(C)C)C3)nn4C(C)C)n2)cn1 [Example 17, 1-(6-(2-(1-(Ethylsulfonyl)-1H-pyrazol-4-yl)pyrimidin-4-ylamino)-1-isopropyl-1H-pyrazolo[4,3-c]pyridin-3-yl)-N, N-dimethylazetidine-3-carboxamide]
